Source: US10227591B2, “Modulation of human cytomegalovirus replication by micro-RNA 132 (miR132), micro-RNA 145 (miR145) and micro-RNA 212 (miR212)” (priority 2009, dated 2019)

Experiments:
MeCP2 = MeCP2 protein Western blot after transfection with miR132 or miR212 LNA; type: cell-based, Human; details: HEL cells transfected with 500 pmol LNA; nuclear enriched extracts; versus scramble LNA
Description: In order to assess the role of miR132 and miR212 in virus replication, miR132 and miR212 were inhibited using antisense locked nucleic acid (LNA) oligonucleotides targeting miR132 or miR212 Inhibition of miR132 and/or miR212 in this way counteracts the increase in miR132 or miR212 expression that occurs during HCMV infection. To test the efficacy of the LNAs, HEL cells were transfected with 500 pmol of scramble, miR132, or miR212 specific locked nucleic acid (Exiqon) to inhibit miRNA function. Nuclear enriched extracts were prepared, and protein levels were determined by Western blot.

HCMV [1] = experiment: HCMV virus release by plaque assay after antisense miR132 LNA transfection; type: cell-based; details: for viral replication (virus release, viral proteins IE2, pp65, gB55): summary statement in the description, transfection of cells
Method: (§1) To determine the role of miR132 on HCMV replication, HEL cells were transfected with antisense miR132 LNA, and were infected with HCMV. The amount of virus released from infected cells was quantitated by plaque assay, and viral protein accumulation was analyzed by Western blot of protein lysates from infected cells. […] Taken together with the previous data, this experiment confirms that miR132 is necessary for efficient HCMV replication, and that HCMV replication can be effectively attenuated by inhibition of miR132.

[2] = tested on: HCMV proteins IE2, pp65, gB55; experiment: HCMV viral protein accumulation by Western blot after antisense miR132 LNA transfection; type: cell-based; details: HEL cells transfected, infected with HCMV; versus control LNA
Method: as §1

IRS-1 = IRS-1 protein Western blot after transfection with miR145 mimic; type: cell-based, Human; details: HEL fibroblasts; 48, 72 and 96 hours post transfection; compared to control miRNA transfected cells
Method: This experiment was performed to determine whether a miR145 mimic targets Insulin Receptor Substrate-1 (IRS-1) mRNA, which is a target of miR145, in HEL fibroblasts. HEL fibroblasts were transfected with either a control miRNA (ct) or miR145 mimic (145) (Dharmacon). Cell pellets were collected at 24, 48, 72 and 96 hours post transfection and lysed. Western blot was performed using an anti IRS-1 antibody (Upstate Biothechnology). Actin is shown as a loading control. […] This downregulation is not observed in the cells transfected with a control miRNA, or the mock-transfected cells.

[3] = tested on: HCMV proteins IE2, pp65, gB55, IE1; experiment: HCMV viral protein expression by western blot after miR145 mimic transfection; type: cell-based; details: HEL fibroblasts, HCMV MOI=1, 24-144 hpi; compared to control miRNA
Method: These experiments were performed to establish the role of miR145 on HCMV protein expression. HEL fibroblasts were transfected with either a control miRNA or miR145 mimic (Dharmacon). The cells were infected with HCMV (MOI=1) 24 hours after transfection. Cell pellets were collected at 24, 48, 72, 96, 120 and 144 hpi, lysed and examined for viral protein expression by western blot.

HCMV [4] = experiment: HCMV viral titers in supernatants by plaque assay after miR145 mimic transfection; type: cell-based
Method: This experiment was performed to determine whether altered regulation of miR145 following viral infection affects viral replication. HEL fibroblasts were transfected with either a control (ct) miRNA or a miR145 mimic (145) (Dharmacon). The cells were infected with HCMV (MOI=1) 24 hours after transfection. Supernatants were collected at 24, 48, 72, 96, 120 and 144 hpi and examined for viral titers by plaque assay. […] A 10-fold difference can be observed from 72 to 96 hpi. At 144 hpi, viral titers are similar in the control and miR145 mimic transfected cells. […] This is consistent with the hypothesis that downregulation of miR145 contributes to HCMV pathogenesis by enhancing its replication.

| Substance | MeCP2 protein levels (MeCP2) | viral replication (virus release, viral proteins IE2, pp65, gB55) (HCMV [1]) | decrease in virus replication (HCMV [1]; HEL cells transfected, then infected with HCMV, virus release and viral protein expression) | expression of viral protein IE2 [2] | expression of viral protein gB55 [2] | expression of viral protein pp65 [2] | IRS-1 protein level (IRS-1) | IE1 levels [3] | levels of the Early (E) protein pp65 [3] | levels of the Immediate Early (IE) 2 protein [3] | levels of the Late (L) protein gB55 [3] | viral titers in the supernatants (HCMV [4]; HEL fibroblasts transfected 24 h before HCMV infection (MOI=1), compared to control miRNA) | viral titers versus control (HCMV [4]; HEL fibroblasts, HCMV MOI=1, at 144 hpi) | difference in viral titers (HCMV [4]; HEL fibroblasts, HCMV MOI=1, from 72 to 96 hpi, versus control miRNA) | reduction in viral titers (HCMV [4]; fibroblast cells transfected, subsequently infected with HCMV) |
| --- | --- | --- | --- | --- | --- | --- | --- | --- | --- | --- | --- | --- | --- | --- | --- |
| miR212 LNA: miR212 specific antisense locked nucleic acid (Exiqon); exemplary sequence 5' GGCCGTGACTGGAGACTGTTA 3' (SEQ ID NO:14) (LNA-modified antisense, pattern not given here) | modest increase | attenuates viral replication |  |  |  |  |  |  |  |  |  |  |  |  |  |
| miR132 LNA: miR132 specific antisense locked nucleic acid (Exiqon); exemplary sequence 5' CGACCATGGCTGTAGACTGTTA 3' (SEQ ID NO:13) (antisense CGACCATGGCTGTAGACTGTTA; LNA-modified antisense, pattern not given here) | modest increase | attenuates viral replication | 3 fold | reduced | reduced | reduced |  |  |  |  |  |  |  |  |  |
| miR145 mimic: miR145 mimic (Dharmacon) transfected into HEL fibroblasts; mimics mature miR145 (SEQ ID NO:2) (GUCCAGUUUUCCCAGGAAUCCCU; mimic duplex, passenger strand not given here; listed as Homo sapiens) |  |  |  |  |  |  | Downregulation | Increased IE1 levels | Decreased levels | Decreased levels | Decreased levels | decreased viral titers | similar | 10 fold | > 1 log |
